Assay results: a melting point compilation (Tetko et al.; mined from patent text by program, amines drawn as free bases though some values may be those of a salt)

Row | SMILES | melting point [°C]
1 | COCC(=O)Nc1cc(C(N)=O)cc(NC(=O)COC)c1Cl | 208 to 209
2 | COc1cc2c(cc1Br)CC(C)NN=C2c1ccc([N+](=O)[O-])cc1 (stereo unspecified) | 172 to 174
3 | CCCCCCCCCCCCCCCCNc1ccc(C(=O)OCCCCO)cc1 | 61 to 63
4 | Cc1ccc(-c2csc(C(=O)O)n2)cc1 | 112 to 114
5 | NCCc1ccc(-c2ccc(O)cc2)cc1 | > 350
6 | COc1ccc(OC)c2c1C(=O)c1c(O)c3c(c(O)c1C2=O)CC(=O)CC3 | 173 to 174
7 | CC(C)(O)Cn1c(CO)nc2c(N)nc3cc(-c4cccc(CO)c4)cnc3c21 | 227 to 229
8 | CC(C)(C)OC(=O)NCC1(CC(=O)O)CCCCC1 | 109 to 111
9 | CC(C)OC(=O)c1nsc2ccc(-n3c(=O)cc(C(F)(F)F)n(C)c3=O)cc12 | 94 to 97
10 | COC(=O)C=C(Nc1coc2ccc(Cl)cc2c1=O)C(=O)OC | 158 to 160
11 | N=C(NS(=O)(=O)C=Cc1ccc([N+](=O)[O-])cc1)c1ccc([N+](=O)[O-])cc1 | 173 to 177
12 | CCCC12CCC(=O)C=C1c1c(cc(OCC3=NCCN3)c(Cl)c1Cl)C2 (stereo unspecified) | 152 to 154
13 | CC1c2cc([Si](C)(C)C)ccc2-c2ccc([Si](C)(C)C)cc21 | 107 to 108
14 | Nc1cc(C(=O)NC2CC2)n[nH]1 | > 246
15 | CCc1nc2c(N)nc3ccccc3c2n1CC1(O)CCS(=O)(=O)CC1 | > 250
16 | O=C1Nc2ccccc2C1CCCCN1CCN(c2cccc(Cl)c2)CC1 (stereo unspecified) | 112 to 114
17 | COC1CN(C(=O)c2cnn(C)c2C(=O)Nc2ccn3nc(-c4ccccc4)nc3c2)C1 | 269 to 270
18 | O=S1(=O)c2ccccc2C=Cc2ccc(C=Nc3ccccc3)cc21 | 184 to 185
19 | CCn1c(C)nc2cc(C(F)(F)F)c(N(C)C)c(N)c21 | 141 to 142
20 | COc1cc2c(cc1OC)-c1c(C(N)=O)c(-c3cc(C)c(O)c(C)c3)c(C)n1CC2 | 229 to 231
21 | COc1cn(-c2ccc(-c3c(C)noc3C)cc2F)nc(-c2ccnn2-c2ccccc2)c1=O | 200 to 202

Row | SMILES | melting point [°C]
22 | COC(C)=CC(=O)NC1(C)CCCCC1 | 105
23 | Cc1ccnc(C(=O)c2[nH]c3ccc(Cl)cc3c2CC(=O)NCCO)c1 | 196
24 | N#CC(C(=O)NC1CC1)C(=O)C1CC1 (stereo unspecified) | 136 to 138
25 | CN=C(NOC)c1nn(-c2c(Cl)cc(C(F)(F)F)cc2Cl)c(N)c1S(C)=O (stereo unspecified) | 139 to 142
26 | CC1CC2=CC(=O)CCC2C2CCC3(C)C(O)CCC3C12 (stereo unspecified) | 144 to 146
27 | Cc1cc(C=O)cc(Oc2nc(Cl)nc(Cl)c2C(C)C)c1 | 227 to 229
28 | ON=C1CCn2c1cc1ccccc12 | > 220
29 | COCCOc1ccc(/C=C(\C)C(=O)NS(=O)(=O)c2ccc(Cl)cc2)c(Oc2ncc(C(F)(F)F)cc2Cl)c1 | 146
30 | C=C(C)c1ccccc1S(N)(=O)=O | 76 to 85
31 | O=c1[nH]c2ccc(Br)cc2cc1Cc1ccccc1 | 263
32 | NS(=O)(=O)c1cc(C(=O)O)cc([N+](=O)[O-])c1NCCc1ccccc1 | 208
33 | CC(=O)SCC(C)C(=O)N1C(C(=O)O)CC2CCCCC21 (stereo unspecified) | 152 to 154
34 | CCOC(=O)C(N)c1c[nH]c2c(CC)cccc12 (stereo unspecified) | 120 to 122
35 | O=C(c1cnc2ccccc2c1)N1CCC(c2ccccc2)=N1 | 107 to 112
36 | CC(C)(O)c1ccc(-c2cnc3[nH]c(=O)n(CC4CCCCC4)c3n2)cc1 | 226 to 228
37 | O=C1NC(=O)C(Cc2ccccc2)C(=O)N1 | 207 to 209
38 | CCOC(=O)C(=CNc1ncnc2ccc(N(C(=O)CC(C)(C)C)C(=O)CC(C)(C)C)cc12)C(=O)OCC | 100 to 102
39 | CCOC(=O)C(Cc1cc2cccnc2n(-c2cccc([N+](=O)[O-])c2)c1=O)C(=O)c1ccncc1 (stereo unspecified) | 72 to 73
40 | Cc1oncc1C(=O)Nc1ccc(-n2nc(C(F)(F)F)cc2C2CC2)c(F)c1 | 125 to 128
41 | COC(=O)C(CCCCNC(=O)OCc1ccccc1)NC(=O)CCC(C)C1CCC2C3C(O)CC4CC(O)CCC4(C)C3CC(O)C12C (stereo unspecified) | 80 to 83
42 | CC(=O)OC1CCN(c2ccc3[nH]c(=O)ccc3c2)CC1 | 245 to 250

Second part, the molecule after the results:

Row | melting point [°C] | SMILES
43 | 122 to 124 | O=C1NCC(CN2CCN(c3cccc(C(F)(F)F)c3)CC2)O1 (stereo unspecified)
44 | 74 to 75 | C=CC[C@H]1Cc2c(OCOC)cccc2C(=O)O1
45 | 168 to 170 | COCCn1nc(-c2sc(C(=O)NCc3ccccn3)nc2-c2ccccc2)ccc1=O
46 | 94 to 122 | C[C@@H](n1cnc2cccc(F)c2c1=O)[C@](O)(Cn1cncn1)c1ccc(F)cc1F
47 | 119 to 121 | Cc1ccc(-n2nc(C)c(CC(=O)O)c2C)cc1
48 | 152 | CCCOC(=O)c1cn(CC)c2nc(N3CCNCC3)ncc2c1=O
49 | 135 to 136 | C[C@H](N=C(C(=O)O)C(C)(C)C)c1ccccc1
50 | 105 to 106 | O=C1CCN(C2(OCCOc3ccccc3)OCCO2)CC1
51 | 90 to 92 | COc1ccc(Cc2nc3cccc(NCc4cccnc4)c3o2)cc1OC1CCCC1
52 | 61 to 64 | CC1(O)CC(=O)OC(CCc2ccc(Cl)cc2)C1 (stereo unspecified)
53 | 154 to 156 | Cc1cc(Oc2cccc([N+](=O)[O-])c2N(C)C(=O)OC(C)(C)C)cc(C)c1NC(=O)OC(C)(C)C
54 | 108 to 109 | CN(O)C(=O)NCCc1ccc(Cl)c(Cl)c1
55 | 105 to 109 | Cn1cc(-c2ccc(C(=O)N3Cc4cccn4Cc4ccccc43)c(Cl)c2)cn1
56 | 209 | O=C(O)c1cccc2cc(Sc3cc(Cl)ncn3)ccc12
57 | 140 to 142 | O=C(O)CSCCCCCn1nc(-c2ccccc2)c(-c2ccccc2)c1-c1ccccc1
58 | 112 to 114 | CCCC1OC(C(=O)OC)CC2=C1C(=O)c1ccccc1C2=O (stereo unspecified)
59 | 64 to 70 | O=C(CCNC(=O)[C@H](Cc1ccccc1)OP(=O)(O)CCCCc1ccccc1)OCc1ccccc1
60 | 125 to 126 | COc1ccc(C=O)cc1OCc1nc(-c2ccco2)oc1C
61 | 246 to 249 | Cc1cc(C2=NNC(C(N)=O)Cc3cc4c(cc32)OCO4)ccc1[N+](=O)[O-] (stereo unspecified)
62 | 151 to 152 | CCOC(=O)c1cnc2c(S)cccn2c1=O

Row | melting point [°C] | SMILES
63 | 160 | CC(C)(C)NCC(O)COc1ccccc1C(=O)Nc1cccc2c1CC(=O)N2 (stereo unspecified)
64 | 179 to 181 | CCOc1ccc(C2SC(=N)NC2=O)c(OCC)c1 (stereo unspecified)
65 | 95 to 96 | O[C@@H]1C=CC=C(Cl)[C@@H]1O (relative stereo)
66 | 111 to 116 | CCCCCN(CCC12CC3CC(CC(C3)C1)C2)C(=O)NCC(Cc1ccccc1)Cc1ccncc1 (stereo unspecified)
67 | 129 to 131 | CN1C(=O)C2C3C=CC(C3)C2(c2ccc(N)cc2)C1=O (stereo unspecified)
68 | 183 to 186 | N#Cc1ccc2ccnc(N)c2c1
69 | 156 to 157 | COc1nc(C)cnc1NS(=O)(=O)c1cccnc1-c1ccc(OCC(C)(C)O)cc1
70 | 233 | N=C(N)NC(=O)c1nc(F)c(N)nc1N
71 | 153 to 154 | CN(c1cccc2cc(-c3nc(CCl)cs3)[nH]c12)S(=O)(=O)c1cccs1
72 | 153 to 154 | O=c1c(O)c(C#Cc2ccccc2)oc2ccccc12
73 | 188 to 192 | Nc1cc(Oc2ccc(NC(=O)Nc3ccc(-c4ccccn4)c(C(F)(F)F)c3)cc2)ncn1
74 | 116 to 118 | COC(=O)CC/C(C)=C/Cc1c(NC(=O)N(C)C)c2c(c(C)c1OC)COC2=O
75 | 80 to 83 | CN(C)C=Cc1ccncc1C#N
76 | 255 to 257 | COc1ccc2oc3ccc(I)cc3c2c1C(=O)Nc1ccncc1
77 | 182 to 183 | O=C(C=Cc1ccccc1)C(Cc1ccccc1)(Cc1ccccc1)C(=O)C=Cc1ccccc1
78 | 112 to 114 | O=C1CCC(c2c[nH]c3ccc(F)cc23)CC1
79 | 156 | C#CCC(CC#C)(C(=O)O)S(=O)(=O)c1ccc(OC)cc1
80 | 83 to 84 | CCOC(=O)COc1ccc(NS(C)(=O)=O)cc1C
81 | 170 to 172 | CCn1cc(C2(c3cccc(-c4cccnc4F)c3)N=C(N)N(C)C2=O)cc1CO (stereo unspecified)
82 | 90 to 91 | O=Cc1ccc(-c2ccccc2)cc1Cl

Row | melting point [°C] | SMILES
83 | 210 to 213 | OCC1C(O)C(O)C(O)CN1C=CCc1cccc(OCCOc2cccc(CC=CN3CC(O)C(O)C(O)C3CO)c2)c1 (stereo unspecified)
84 | 299 to 303 | CC(=NNc1ccc(-c2n[nH]c(=O)cc2C)cc1)c1ccc(O)cc1O
85 | 120 | CC(C)(CCN1CCc2ccc(S(=O)(=O)Nc3cccc(Cl)c3)cc2C1)C(=O)O
86 | 166 to 168 | CSCCN1CSC(=Cc2cc(C(C)(C)C)c(O)c(C(C)(C)C)c2)C1=O
87 | 172 to 174 | Cc1cc(S(=O)(=O)Nc2cccc(Br)c2)c2c(C)ccc(C(C)C)cc1-2
88 | 160 | CCCCC(=O)OC1(C(=O)CO)CCC2C3CC(C)C4=CC(=O)CCC4(C)C3C(O)CC21C (stereo unspecified)
89 | 56 to 59 | O=C(Nc1ccc2c(c1)CCC2)OCc1ccccc1
90 | 140 to 142 | O=C(O)CCC(=O)c1cccc(-n2ccnc2)c1
91 | 176 to 177 | COC(=O)C1=NC2=COc3cc(C)ccc3N2C1C(=O)O (stereo unspecified)
92 | 149 to 153 | CN1C(=O)CCC1(O)c1ccc(Cl)c(S(=O)(=O)NCCc2ccccc2)c1 (stereo unspecified)
93 | 91 to 93 | Clc1ccc2c(c1)CCC(c1ccccc1)S2 (stereo unspecified)
94 | 115 to 117 | CSC(=NS(=O)(=O)c1ccccc1-c1ccccc1)SC
95 | 221 to 232 | C#CCN(Cc1cc2c(=O)[nH]c(C)nc2cc1Br)c1ccc(C(=O)NC(CO)c2cccc([N+](=O)[O-])c2)cc1 (stereo unspecified)
96 | 55 to 56 | Nc1cccc(CSCCNC(=O)c2c(Cl)cccc2Cl)c1
97 | 200 to 202 | O=[N+]([O-])c1ccc2c(c1)nc(/C=C/c1ccccc1)n2-c1ccccn1
98 | 152 to 153 | CS(=O)(=O)c1ccc(-c2coc(=O)n2-c2ccc(F)cc2)cc1
99 | 142 to 144 | CNC(=O)n1nc(Oc2ccc([N+](=O)[O-])cc2C(F)(F)F)cc1C
100 | 163 to 164 | COC(=O)C1CN(C(=O)c2cc(OC)c(OC)c(OC)c2)CCN1C(=O)OC(C)(C)C (stereo unspecified)
101 | 136 to 137 | CS(=O)(=O)c1ccc(-c2cc(C(=O)CCCO)nn2-c2ccc(Br)cc2)cc1
